Entries after “also recorded” stand apart in the source; their conditions may differ.
Tests used:
[1] = Liver microsomal stability, rat; assay type: in vitro ADME
Description: (§1) Based on the structure and activity of the two series above, we replaced the alcohol with –CH2.

[2] = Liver microsomal stability, human; assay type: in vitro ADME
Description: as §1

[3] = Liver microsomal stability (species not stated); assay type: in vitro ADME
[4] = molecular target: 5HT2A (Homo sapiens, UniProt P28223); assay: Human 5HT2A inhibition assay (FLIPR calcium 6, 5HT stimulus, stably transfected HEK293 cells); assay type: cell-based; parameters: expressed in transfected cells; host or cells: HEK293
Chain of 5HT2A (P28223 whole entry): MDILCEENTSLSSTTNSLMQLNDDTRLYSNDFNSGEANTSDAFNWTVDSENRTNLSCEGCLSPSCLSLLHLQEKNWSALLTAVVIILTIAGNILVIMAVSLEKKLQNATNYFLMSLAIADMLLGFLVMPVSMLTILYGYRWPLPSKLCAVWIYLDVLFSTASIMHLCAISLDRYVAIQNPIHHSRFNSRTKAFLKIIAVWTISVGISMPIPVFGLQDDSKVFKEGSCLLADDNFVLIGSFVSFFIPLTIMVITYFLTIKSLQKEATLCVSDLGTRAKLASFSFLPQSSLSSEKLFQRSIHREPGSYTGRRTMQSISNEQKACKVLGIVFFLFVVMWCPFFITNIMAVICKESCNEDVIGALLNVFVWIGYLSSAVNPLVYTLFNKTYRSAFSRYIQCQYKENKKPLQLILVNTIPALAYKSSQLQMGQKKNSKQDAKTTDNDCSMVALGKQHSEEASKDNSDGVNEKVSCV
Protocol: The derivatives were evaluated at a concentration of 1 μM for their antagonist activity on the 5HT2A receptor (Tables 1–3)[33],[34]. […] The cells were stained with 100 μL of cytosolic calcium dye using the FLIPR calcium 6 assay solution (Molecular devices, #R8190) supplemented with 2.5 mM probenecid (Sigma; P8761) and incubated for 1 h at 37 °C. After 1 h, the designated amount of the compound was treated in each well and incubated for another 1 h at 37 °C. […] Experimental conditions for the 5HT subtypes can be found in the Supporting Information (Supplementary Table 1).

| metabolic stability in the liver microsome (% after 30 min incubation) [1] [%] | metabolic stability in the liver microsome (% after 30 min incubation) [2] [%] | IC50 [4] [nM] | IC50 (nM) [4] | % Inhibition at 1 μM (SD) ([4]; 1 μM) [%] | inhibition at 1 µM ([4]; HEK293, 1 μM, read-out: % Inhibition at 1 μM (SD)) [%] | Compound | liver microsomal stability (in words) [3] |
| --- | --- | --- | --- | --- | --- | --- | --- |
| 0.50 | 5.33 | 47 | lower in vitro activity than 11c | 102 ± 0.03 | – | O=c1[nH]c2ccccc2c(=O)n1CCN1CCC(=C2c3ccc(Cl)cc3CCc3cccnc32)CC1 [Compound 11d] | metabolically unstable; also recorded: low liver microsomal stability |
| 11.7 | 17.3 | 14 | – | – | 92.63 ± 0.6 | Cc1nc2n(c(=O)c1CCN1CCC(=C3c4ccc(Cl)cc4CCc4cccnc43)CC1)CCCC2 [Compound 11b] | metabolically unstable; also recorded: rapidly metabolized in the liver microsome |

From PMC10799935, “Discovery of a peripheral 5HT2A antagonist as a clinical candidate for metabolic dysfunction-associated steatohepatitis” (Nature Communications, 2024)
